Assay results published in patent US20260256792A1, “TREATMENT OF CHRONIC SPONTANEOUS URTICARIA BY ADMINISTERING (R)-2-[3-[4-AMINO-3-(2-FLUORO-4-PHENOXY-PHENYL)PYRAZOLO[3,4-D]PYRIMIDIN-1-YL]PIPERIDINE-1-CARBONYL]-4-METHYL-4-[4-(OXETAN-3-YL)PIPERAZIN-1-YL]PENT-2-ENENITRILE” (priority 2023, published 2026).

Tested on: moderate-to-severe chronic spontaneous urticaria (CSU)
Assay: Phase 2 CSU study: urticaria activity score over 7 days (UAS7)
Assay type: in vivo, human
Settings: for Responder n (%), UAS7 ≤6 / Imputed non-responder n (%), UAS7 = 0 / Imputed non-responder n (%), UAS7 ≤6 / Non-responder n (%), UAS7 = 0 / Non-responder n (%), UAS7 ≤6 / OR for rilzabrutinib vs. placebo, UAS7 = 0 / RRD (%) for rilzabrutinib vs. placebo, UAS7 = 0 / RRD (%) for rilzabrutinib vs. placebo, UAS7 ≤6 / Responder n (%), UAS7 = 0 / OR for rilzabrutinib vs. placebo, UAS7 ≤6: ITT; for UAS7 Post-baseline Mean (SD): Omalizumab-Naïve Population with Outlier Removed
Source text: The study comprises a 12 week, randomized, double-blind, placebo-controlled, multi-center, dose-ranging efficacy and safety phase, followed by a 40 week open label extension (OLE) phase (see FIG. 1). The study consists of three phases and an optional OLE phase. […] Clinically, CSU is characterized by the spontaneous and recurrent appearance of pruritic hives. The proposed primary endpoints were the UAS7 at Week 12 in EU and EU reference countries and the ISS7 in the US. Regardless of where a participant was from, all assessments were the same. The UAS7 score is a composite score containing both the HSS7 and the ISS7. This allowed a global assessment of the two key components of urticaria: hives and itch. […] The UAS is a validated PRO measure. […] The daily UAS scores range from 0 to 6 point/day. […] Patients were to complete the UAS using the e-diary. […] The following secondary endpoints were to be analyzed using the same approach as for the primary endpoint: • Change from baseline in UAS7 at Week 4 • Change from baseline in UAS7 at Week 12 (for US and US reference countries) • Change from baseline in ISS7 at Week 12 (except US and US reference countries) • Change from baseline in HSS7 at Week 12 The following responder secondary endpoints were to be analyzed using the Cochran-Mantel-Haenszel test adjusted by region: • Proportion of participants with UAS7<6 at Week 12 • Proportion of participants with UAS7=0 at Week 12 Participants who received selected prohibited medications and/or rescue medications were to be considered as non-responders for time points after the medication usage. For other participants, all available data including those collected during the off-treatment period were to be used to determine the responder/non-responder status. Missing data were to be considered as non-responders.

## CC(C)(C=C(C#N)C(=O)N1CCC[C@@H](n2nc(-c3ccc(Oc4ccccc4)cc3F)c3c(N)ncnc32)C1)N1CCN(C2COC2)CC1 [rilzabrutinib, (R)-2-[3-[4-amino-3-(2-fluoro-4-phenoxy-phenyl)pyrazolo[3,4-d]pyrimidin-1-yl]piperidine-1-carbonyl]-4-methyl-4-[4-(oxetan-3-yl)piperazin-1-yl]pent-2-enenitrile]
400 mg QPM, Week 12
  Responder n (%), UAS7 ≤6: 2 (5.3) n (%)
400 mg TID, Week 1
  Imputed non-responder n (%), UAS7 = 0: 0 n (%)
  Imputed non-responder n (%), UAS7 ≤6: 0 n (%)
  Non-responder n (%), UAS7 = 0: 40 (97.6) n (%)
  Non-responder n (%), UAS7 ≤6: 31 (75.6) n (%)
  OR for rilzabrutinib vs. placebo, UAS7 = 0: 1.084
  RRD (%) for rilzabrutinib vs. placebo, UAS7 = 0: 0.2 %
  RRD (%) for rilzabrutinib vs. placebo, UAS7 ≤6: 17.6 %
  Responder n (%), UAS7 = 0: 1 (2.4) n (%)
  Responder n (%), UAS7 ≤6: 10 (24.4) n (%)
400 mg TID, Week 2
  Imputed non-responder n (%), UAS7 = 0: 0 n (%)
  Imputed non-responder n (%), UAS7 ≤6: 0 n (%)
  Non-responder n (%), UAS7 = 0: 35 (85.4) n (%)
  Non-responder n (%), UAS7 ≤6: 30 (73.2) n (%)
  OR for rilzabrutinib vs. placebo, UAS7 = 0: 6.522
  OR for rilzabrutinib vs. placebo, UAS7 ≤6: 6.049
  RRD (%) for rilzabrutinib vs. placebo, UAS7 = 0: 11.0 %
  RRD (%) for rilzabrutinib vs. placebo, UAS7 ≤6: 19.4 %
  Responder n (%), UAS7 = 0: 6 (14.6) n (%)
  Responder n (%), UAS7 ≤6: 11 (26.8) n (%)
400 mg TID, Week 3
  Imputed non-responder n (%), UAS7 = 0: 0 n (%)
  Imputed non-responder n (%), UAS7 ≤6: 0 n (%)
  Non-responder n (%), UAS7 = 0: 37 (90.2) n (%)
  Non-responder n (%), UAS7 ≤6: 30 (73.2) n (%)
  OR for rilzabrutinib vs. placebo, UAS7 = 0: 4.480
  OR for rilzabrutinib vs. placebo, UAS7 ≤6: 3.055
  RRD (%) for rilzabrutinib vs. placebo, UAS7 = 0: 6.9 %
  RRD (%) for rilzabrutinib vs. placebo, UAS7 ≤6: 14.9 %
  Responder n (%), UAS7 = 0: 4 (9.8) n (%)
  Responder n (%), UAS7 ≤6: 11 (26.8) n (%)
400 mg TID, Week 4
  Imputed non-responder n (%), UAS7 = 0: 3 (7.3) n (%)
  Imputed non-responder n (%), UAS7 ≤6: 3 (7.3) n (%)
  Non-responder n (%), UAS7 = 0: 37 (90.2) n (%)
  Non-responder n (%), UAS7 ≤6: 34 (82.9) n (%)
  OR for rilzabrutinib vs. placebo, UAS7 = 0: 1.867
  OR for rilzabrutinib vs. placebo, UAS7 ≤6: 1.217
  RRD (%) for rilzabrutinib vs. placebo, UAS7 = 0: 4.0 %
  RRD (%) for rilzabrutinib vs. placebo, UAS7 ≤6: 2.4 %
  Responder n (%), UAS7 = 0: 4 (9.8) n (%)
  Responder n (%), UAS7 ≤6: 7 (17.1) n (%)
400 mg TID, Week 5
  Imputed non-responder n (%), UAS7 = 0: 3 (7.3) n (%)
  Imputed non-responder n (%), UAS7 ≤6: 3 (7.3) n (%)
  Non-responder n (%), UAS7 = 0: 34 (82.9) n (%)
  Non-responder n (%), UAS7 ≤6: 27 (65.9) n (%)
  OR for rilzabrutinib vs. placebo, UAS7 = 0: 7.606
  OR for rilzabrutinib vs. placebo, UAS7 ≤6: 8.858
  RRD (%) for rilzabrutinib vs. placebo, UAS7 = 0: 13.2 %
  RRD (%) for rilzabrutinib vs. placebo, UAS7 ≤6: 26.0 %
  Responder n (%), UAS7 = 0: 7 (17.1) n (%)
  Responder n (%), UAS7 ≤6: 14 (34.1) n (%)
400 mg TID, Week 6
  Imputed non-responder n (%), UAS7 = 0: 5 (12.2) n (%)
  Imputed non-responder n (%), UAS7 ≤6: 5 (12.2) n (%)
  Non-responder n (%), UAS7 = 0: 32 (78.0) n (%)
  Non-responder n (%), UAS7 ≤6: 28 (68.3) n (%)
  OR for rilzabrutinib vs. placebo, UAS7 = 0: 9.649
  OR for rilzabrutinib vs. placebo, UAS7 ≤6: 2.273
  RRD (%) for rilzabrutinib vs. placebo, UAS7 = 0: 17.2 %
  RRD (%) for rilzabrutinib vs. placebo, UAS7 ≤6: 14.2 %
  Responder n (%), UAS7 = 0: 9 (22.0) n (%)
  Responder n (%), UAS7 ≤6: 13 (31.7) n (%)
400 mg TID, Week 7
  Imputed non-responder n (%), UAS7 = 0: 6 (14.6) n (%)
  Imputed non-responder n (%), UAS7 ≤6: 6 (14.6) n (%)
  Non-responder n (%), UAS7 = 0: 37 (90.2) n (%)
  Non-responder n (%), UAS7 ≤6: 30 (73.2) n (%)
  OR for rilzabrutinib vs. placebo, UAS7 = 0: 4.480
  OR for rilzabrutinib vs. placebo, UAS7 ≤6: 3.247
  RRD (%) for rilzabrutinib vs. placebo, UAS7 = 0: 6.9 %
  RRD (%) for rilzabrutinib vs. placebo, UAS7 ≤6: 16.1 %
  Responder n (%), UAS7 = 0: 4 (9.8) n (%)
  Responder n (%), UAS7 ≤6: 11 (26.8) n (%)
400 mg TID, Week 8
  Imputed non-responder n (%), UAS7 = 0: 8 (19.5) n (%)
  Imputed non-responder n (%), UAS7 ≤6: 8 (19.5) n (%)
  Non-responder n (%), UAS7 = 0: 37 (90.2) n (%)
  Non-responder n (%), UAS7 ≤6: 28 (68.3) n (%)
  OR for rilzabrutinib vs. placebo, UAS7 = 0: 1.697
  OR for rilzabrutinib vs. placebo, UAS7 ≤6: 2.257
  RRD (%) for rilzabrutinib vs. placebo, UAS7 = 0: 3.2 %
  RRD (%) for rilzabrutinib vs. placebo, UAS7 ≤6: 12.7 %
  Responder n (%), UAS7 = 0: 4 (9.8) n (%)
  Responder n (%), UAS7 ≤6: 13 (31.7) n (%)
400 mg TID, Week 9
  Imputed non-responder n (%), UAS7 = 0: 7 (17.1) n (%)
  Imputed non-responder n (%), UAS7 ≤6: 7 (17.1) n (%)
  Non-responder n (%), UAS7 = 0: 37 (90.2) n (%)
  Non-responder n (%), UAS7 ≤6: 26 (63.4) n (%)
  OR for rilzabrutinib vs. placebo, UAS7 = 0: 1.117
  OR for rilzabrutinib vs. placebo, UAS7 ≤6: 4.680
  RRD (%) for rilzabrutinib vs. placebo, UAS7 = 0: 0.8 %
  RRD (%) for rilzabrutinib vs. placebo, UAS7 ≤6: 22.0 %
  Responder n (%), UAS7 = 0: 4 (9.8) n (%)
  Responder n (%), UAS7 ≤6: 15 (36.6) n (%)
400 mg TID, Week 10
  Imputed non-responder n (%), UAS7 = 0: 7 (17.1) n (%)
  Imputed non-responder n (%), UAS7 ≤6: 7 (17.1) n (%)
  Non-responder n (%), UAS7 = 0: 35 (85.4) n (%)
  Non-responder n (%), UAS7 ≤6: 27 (65.9) n (%)
  OR for rilzabrutinib vs. placebo, UAS7 = 0: 1.210
  OR for rilzabrutinib vs. placebo, UAS7 ≤6: 2.074
  RRD (%) for rilzabrutinib vs. placebo, UAS7 ≤6: 12.9 %
  Responder n (%), UAS7 = 0: 6 (14.6) n (%)
  Responder n (%), UAS7 ≤6: 14 (34.1) n (%)
400 mg TID, Week 11
  Imputed non-responder n (%), UAS7 = 0: 6 (14.6) n (%)
  Imputed non-responder n (%), UAS7 ≤6: 6 (14.6) n (%)
  Non-responder n (%), UAS7 = 0: 34 (82.9) n (%)
  Non-responder n (%), UAS7 ≤6: 26 (63.4) n (%)
  OR for rilzabrutinib vs. placebo, UAS7 = 0: 3.449
  OR for rilzabrutinib vs. placebo, UAS7 ≤6: 2.322
  RRD (%) for rilzabrutinib vs. placebo, UAS7 = 0: 10.4 %
  RRD (%) for rilzabrutinib vs. placebo, UAS7 ≤6: 15.0 %
  Responder n (%), UAS7 = 0: 7 (17.1) n (%)
  Responder n (%), UAS7 ≤6: 15 (36.6) n (%)
400 mg TID, Week 12
  Imputed non-responder n (%), UAS7 = 0: 11 (26.8) n (%)
  Imputed non-responder n (%), UAS7 ≤6: 11 (26.8) n (%)
  Non-responder n (%), UAS7 = 0: 31 (75.6) n (%)
  Non-responder n (%), UAS7 ≤6: 26 (63.4) n (%)
  OR for rilzabrutinib vs. placebo, UAS7 = 0: 1.995
  OR for rilzabrutinib vs. placebo, UAS7 ≤6: 3.721
  RRD (%) for rilzabrutinib vs. placebo, UAS7 = 0: 9.4 %
  RRD (%) for rilzabrutinib vs. placebo, UAS7 ≤6: 20.9 %
  Responder n (%), UAS7 = 0: 10 (24.4) n (%)
  Responder n (%), UAS7 ≤6: 15 (36.6) n (%)
400 mg BID, Week 1
  UAS7 Post-baseline Mean (SD): 19.77 (11.32)
400 mg BID, Week 2
  UAS7 Post-baseline Mean (SD): 19.59 (10.86)
400 mg BID, Week 3
  UAS7 Post-baseline Mean (SD): 17.71 (11.91)
400 mg BID, Week 4
  UAS7 Post-baseline Mean (SD): 15.92 (11.71)
400 mg BID, Week 5
  UAS7 Post-baseline Mean (SD): 17.22 (13.36)
400 mg BID, Week 6
  UAS7 Post-baseline Mean (SD): 17.02 (12.76)
400 mg BID, Week 7
  UAS7 Post-baseline Mean (SD): 15.55 (11.97)
400 mg BID, Week 8
  UAS7 Post-baseline Mean (SD): 13.98 (13.06)
400 mg BID, Week 9
  UAS7 Post-baseline Mean (SD): 14.64 (14.43)
400 mg BID, Week 10
  UAS7 Post-baseline Mean (SD): 15.22 (14.36)
400 mg BID, Week 11
  UAS7 Post-baseline Mean (SD): 15.06 (13.80)
400 mg BID, Week 12
  UAS7 Post-baseline Mean (SD): 15.61 (13.91)
400 mg QPM, Week 1
  UAS7 Post-baseline Mean (SD): 23.81 (8.78)
